Some test systems named below: NCI-H460 lung; 786-0 renal; SF-539 CNS; NCI-H23 lung; HCT-116 colon; M14 melanoma; NCI-H522 lung; SK-MEL-2 melanoma; LOX IMVI melanoma; KM12 colon.
What all share (assay): NCI anticancer screen, dose series, 48 h

The source of these data is PubChem BioAssay (NCI).

Values joined by “and” are separate entries in the source; they are usually repeats but may differ in a detail not shown here. Equal values may be shown once.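 Each compound was tested at five concentrations against cells in 96-well plates for 48 hours. GI50 is the concentration that inhibits growth by half. At the TGI there is no net growth.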

Turning to `COC(=O)[C@]12CC[C@@H](C)[C@H](C)[C@@H]1C1=CC[C@@H]3[C@@]4(C)C(C=O)=C[C@@](C)(COS(C)(=O)=O)C4=CC[C@@]3(C)[C@]1(C)CC2`, the GI50 in the assay on NCI-H460 lung is 0.226 µM; with 786-0 renal it was 0.189 µM; in the assay on SF-539 CNS, 0.207 µM; with NCI-H23 lung, 0.303 µM; with HCT-116 colon it was 0.16 µM; in the assay with M14 melanoma, 0.213 µM. Besides, the results for the GI50 with NCI-H522 lung, in the assay with SK-MEL-2 melanoma and in the assay on LOX IMVI melanoma were 0.178 µM, 0.226 µM and 0.169 µM, respectively. Besides, the TGI worked out at 0.534 µM with NCI-H460 lung; 0.415 µM with 786-0 renal; 0.451 µM with SF-539 CNS; 1.34 µM in the assay on NCI-H23 lung; 0.321 µM with HCT-116 colon; 0.486 µM with M14 melanoma. For the same compound, the TGI in the assay with NCI-H522 lung is 0.371 µM; with SK-MEL-2 melanoma, 0.497 µM; in the assay on LOX IMVI melanoma, 0.316 µM.
`CCC(Oc1ccc(OC)c2c1C(=O)CCC2)C(=O)O` (configuration not stated): the TGI in the assay on NCI-H460 lung, in the assay with 786-0 renal, in the assay with SF-539 CNS, in the assay on NCI-H23 lung, in the assay on KM12 colon and with M14 melanoma was over 100 µM throughout. For the same compound, the TGI with NCI-H522 lung, with SK-MEL-2 melanoma and in the assay with LOX IMVI melanoma was over 100 µM each time.
On to `O=C1C2C(C(=O)N1Cc1ccccc1)N(Cc1ccccc1)C(=O)N2Cc1ccccc1` (configuration not stated), for which the TGI with NCI-H460 lung, with 786-0 renal, with SF-539 CNS, in the assay with NCI-H23 lung, with KM12 colon and with HCT-116 colon was over 100 µM throughout. The TGI with M14 melanoma, in the assay on NCI-H522 lung and in the assay with LOX IMVI melanoma was over 100 µM in each case.
For the compound `COc1ccc([C@@]23Oc4cc(OC)cc(OC)c4[C@]2(O)[C@H](O)[C@H](C(=O)N(C)C)[C@H]3c2ccccc2)cc1`, the GI50 is 0.0287 µM in the assay on 786-0 renal, 0.0152 µM in the assay on NCI-H23 lung, 0.0179 µM in the assay with NCI-H522 lung and 0.0225 µM with SK-MEL-2 melanoma. Besides, the TGI in the assay with 786-0 renal was 0.159 µM and 0.0333 µM and 0.215 µM; in the assay on SF-539 CNS, 0.00512 µM and 0.0154 µM; with KM12 colon, 0.0892 µM and 0.281 µM; in the assay with M14 melanoma, 0.014 µM; in the assay with SK-MEL-2 melanoma, 0.0938 µM and 0.0112 µM and 0.0709 µM; in the assay with LOX IMVI melanoma, 0.0189 µM and 0.0225 µM.
Regarding `Cc1ccc(-n2nc(C(OC3OC(CO)C(O)C(O)C3O)C(O)CO)c3nc4cc(C)c(C)cc4nc32)cc1` (configuration not stated), the TGI with NCI-H460 lung, in the assay on 786-0 renal, in the assay with SF-539 CNS, in the assay on NCI-H23 lung, with KM12 colon and in the assay on HCT-116 colon was over 100 µM in each case. The TGI with M14 melanoma, in the assay with NCI-H522 lung and in the assay with LOX IMVI melanoma was over 100 µM each time.
In the case of `Nc1nc(Cl)c2ncn(Cc3ccc(C45CC6CC(CC(C6)C4)C5)c(OCc4cc(F)c(F)cc4F)c3)c2n1`, the GI50 in the assay with NCI-H460 lung was 2.39 µM; with 786-0 renal, 1.85 µM; in the assay on SF-539 CNS, 4.18 µM; with KM12 colon, 2.93 µM; in the assay on HCT-116 colon, 1.03 µM; with NCI-H522 lung it was 2.8 µM. For the same compound, the GI50 is 5.84 µM with SK-MEL-2 melanoma and 1.88 µM with LOX IMVI melanoma. For the same compound, the TGI is 5.89 µM in the assay with NCI-H460 lung; 4.93 µM with 786-0 renal; 14.8 µM in the assay on SF-539 CNS; 9.13 µM in the assay on KM12 colon; 2.2 µM in the assay with HCT-116 colon; 12.3 µM in the assay on NCI-H522 lung. In addition, the TGI in the assay with SK-MEL-2 melanoma turned out to be 20.4 µM; in the assay with LOX IMVI melanoma, 8.64 µM.
As to `CCOC(=O)c1cn(C)c2c(OC)c3ccccc3c(OC)c2c1=O`, the GI50 in the assay with NCI-H460 lung is 32.1 µM; in the assay on 786-0 renal, over 100 µM; in the assay on SF-539 CNS, 34 µM; in the assay with NCI-H23 lung, 16.1 µM; in the assay on KM12 colon, 19.7 µM; in the assay with HCT-116 colon it was 19.6 µM. The GI50 was 19.8 µM in the assay on M14 melanoma, over 100 µM with NCI-H522 lung and 20.7 µM with LOX IMVI melanoma. The TGI in the assay on NCI-H460 lung is over 100 µM; in the assay with 786-0 renal it was over 100 µM; in the assay on SF-539 CNS, over 100 µM; with NCI-H23 lung, 37.8 µM; in the assay with KM12 colon it was 48.3 µM; with HCT-116 colon, 38.5 µM. Moreover, the TGI with M14 melanoma is 45 µM; in the assay on NCI-H522 lung it was over 100 µM; in the assay on LOX IMVI melanoma, 58.6 µM.
With `C=C1C(=O)O[C@@H]2C[C@@]3(C)[C@H](O)CCC(=C)[C@@H]3C[C@H]12`, the TGI is 19.7 µM with NCI-H460 lung; 21.6 µM with 786-0 renal; 23.6 µM in the assay on SF-539 CNS; 25.5 µM in the assay with NCI-H23 lung; 14.4 µM in the assay on KM12 colon; 18.5 µM in the assay with HCT-116 colon. The TGI in the assay on NCI-H522 lung came out at 17.6 µM; in the assay on SK-MEL-2 melanoma it was 40 µM; in the assay on LOX IMVI melanoma, 20.7 µM.
Take `Cc1nc2sccn2c1C(=O)NNC(N)=S`: the TGI with NCI-H460 lung, with 786-0 renal, with SF-539 CNS, in the assay with NCI-H23 lung, in the assay with KM12 colon and in the assay on HCT-116 colon was over 100 µM in each case. Further, the TGI in the assay on NCI-H522 lung, in the assay on SK-MEL-2 melanoma and in the assay on LOX IMVI melanoma was over 100 µM throughout.
